Measurements from patent publication US12516331B2, “Monocyte-specific aptamers and uses thereof for enhancing drug delivery to cancer” (Academia Sinica, priority 2020, dated 2026).

Key:
[1] = test system: human monocyte cell line U937; assay: Flow cytometry binding of Cy5-labeled aptamers to human monocyte cell line U937; conditions: U937 cells, 200 nM Cy5-aptamer, 4° C., 30 minutes (FIG. 3)
Method: (§1) To confirm that J10 binding, but not S2 binding, was selective to human monocytes in vitro, Cy5-labeled J10 and S2 were also incubated with the human monocyte cell lines, THP-1 and U937, and human umbilical cord endothelial cells (HUVEC), which were used as a negative control. In brief, 5×10^5 of each selected cell line was pre-mixed in a bloc king buffer (20% FBS and 10% salmon sperm DNA in PBS) at 4° C. for 30 minutes. After that, the cells were reacted with 200 nM Cy5-J10 or Cy5-S2 in the blocking buffer at 4° C. for 30 minutes. Finally, the sample was subjected to flow cytometry using standard protocols known in the art.

[2] = test system: RAW264.7 (murine monocyte cell line); assay: Flow cytometry binding of Cy5-labeled aptamers to monocyte cell line RAW264.7; design: species or system mouse; conditions: RAW264.7 cells, 200 nM Cy5-aptamer, 4° C., 30 minutes, flow cytometry (FIG. 2A)
Method: (§2) To confirm that J10, but not S2, was capable of binding selectively to monocytes in vitro, the J10 and S2 aptamers were first labeled with the fluorescent labeling reagent Cy5 ((2Z)-2-[(2E,4E)-5-[1-(5-Carboxypentyl)-3,3-dimethyl-5-sulfoindol-1-ium-2-yl]penta-2,4-dienylidene]-1-ethyl-3,3-dimethylindole-5-sulfonate) and then incubated with monocyte cells lines RAW264.7 and J774A.1. Cy5-labeled J10 and S2 were also incubated with the mouse endothelial cell line SVEC which was used as a negative selection. In brief, 5×10^5 of each selected cell line was pre-mixed in a bloc king buffer (20% FBS and 10% salmon sperm DNA in PBS) at 4° C. for 30 minutes. After that, the cells were reacted with 200 nM Cy5-J10 or Cy5-S2 in the blocking buffer at 4° C. for 30 minutes. Finally, the sample was subjected to flow cytometry using standard protocols known in the art. […] Together, the data in FIGS. 2A and 2B confirmed that J10, but not S2, was capable of binding selectively to monocytes in vitro and being carried to the injured site in vivo.

[3] = test system: J774A.1 (murine monocyte cell line); assay: Flow cytometry binding of Cy5-labeled aptamers to monocyte cell line J774A.1; design: species or system mouse; conditions: J774A.1 cells, 200 nM Cy5-aptamer, 4° C., 30 minutes, flow cytometry (FIG. 2A)
Method: as §2

[4] = test system: human monocyte cell line THP-1; assay: Flow cytometry binding of Cy5-labeled aptamers to human monocyte cell line THP-1; conditions: THP-1 cells, 200 nM Cy5-aptamer, 4° C., 30 minutes (FIG. 3)
Method: as §1

[5] = test system: mouse endothelial cell line SVEC; assay: Flow cytometry binding of Cy5-labeled aptamers to endothelial cell line SVEC (negative selection); conditions: 200 nM Cy5-aptamer, 4° C., 30 minutes, flow cytometry (FIG. 2A)
Method: as §2

[6] = test system: circulating myeloid cells (CD45+ CD11b+ cells); assay: Ex vivo binding of Cy5-aptamer to peripheral blood cells by flow cytometry; design: species or system mouse; conditions: peripheral blood of healthy mice, 2 μM Cy5-Apt, 30 minutes at 4° C. (FIG. 2D)
Method: To test ex vivo binding specificity and affinity, 100 μL peripheral blood from healthy mice was withdrawn via the submandibular vein, collected in EDTA-containing anticoagulant tubes (BD Vacutainer), and incubated with 2 mL ACK lysing buffer for 10 minutes to lyse the red blood cells. After that, 2% FBS in PBS was added to stop the reaction. Following centrifugation (300 g for 3 minutes at 4° C.) the supernatants were removed. One million cells were blocked by CD16/CD32 Fc blocking antibody (1:100) after incubation for 20 minutes. Then the cells were stained for CD45 (PE-Cy7; 1:100 Biolegend), CD11b (PE; 1:200 Biolegend) and 2 μM Cy5-Apt for 30 minutes at 4° C. Finally, the cells were washed by 2% FBS in PBS and subjected to flow cytometry using standard protocols known in the art.

[7] = PCR analysis of aptamer targeting to the injured site in the mouse cardiac ischemia reperfusion (I/R) model; type: in vivo; conditions: intravenous injection, mouse cardiac I/R model (FIG. 2B)
Excerpt: FIGS. 2A-2D include diagrams depicting the specificity of J10 aptamer to monocytes. FIG. 2A: depicts a graph showing the amount of Cy5-labeled J10 aptamer and Cy5-labeled S2 aptamer in the monocyte cells lines RAW264.7 and J774A.1 and the mouse endothelial cell line SVEC as measured by flow cytometry. Mouse endothelial cell line SVEC was used as a negative selection. The S2 aptamer had the same nucleotide composition as J10 aptamer but randomized the sequence. Two-way ANOVA with a Tukey adjustment was used to analyze the data where *P<0.05; **P<0.01; ***P<0.001 were significant. FIG. 2B: Top panel depicts images showing the accumulating amount of J10 and S2 aptamers in infarct area of the injured hearts as measured by PCR. Bottom panel depicts quantification of PCR results. Unpaired Student's t-test was used to analyze the data where *P<0.05; **P<0.01; ***P<0.001 were significant. FIG. 2C: depicts images showing in vivo targeting of in vivo targeting of S2 aptamer-QD655 (top panel) J10 aptamer-QD655 (bottom panel) to circulating CX3CR1-GFP^+ monocytes via intravital imaging. The aptamer was conjugated with quantum dots QD655. Scale bars shown represent 100 μm. FIG. 2D: depicts a graph showing ex vivo targeting of J10 aptamer against circulating monocytes examined with flow cytometry to analyse the amount of Cy5-J10 associated with CD45^+ and CD11b^+ cells isolated from peripheral blood. […]

## J10: monocyte-targeting DNA aptamer identified by cell-SELEX; sequence in Table 1; Cy5-labeled for flow cytometry (DNA CAATAGAGTCGTACAGGTCGACGCT; Cy5-labeled DNA aptamer, label position not given here) [Aptamer J10]
[1]
  binding affinity (flow cytometry): high binding affinity
[2]
  percentage of Cy5-labeled monocytes: significantly higher than the percentage of Cy5-labeled S2 monocytes
[3]
  percentage of Cy5-labeled monocytes: significantly higher than the percentage of Cy5-labeled S2 monocytes
[4]
  binding affinity (flow cytometry): high binding affinity
[5]
  detection of Cy5-labeled aptamer in endothelial cells: no detection
[6]
  ex vivo affinity to CD45+ CD11b+ cells: high affinity
[7]
  in vivo targeting to the injured site (PCR): confirmed in vivo targeting ability
